# From patent publication US5444042A, “Method of treatment of neurodegeneration with calpain inhibitors” (Cortex Pharmaceuticals, priority 1994, dated 1995)
# Entries after “also recorded” stand apart in the source; their conditions may differ. Where a SMILES comes first, the peptide text is derived from it. The star is where a group is joined. Boc = CC(C)(C)OC(=O)*; CH2Cl = ClC*
# Assays:
# calpain II from rabbit = assay: Calpain II inhibition, Suc-Leu-Tyr-AMC (Table PKC1); type: biochemical; details: 20 mM Hepes, 10 mM CaCl2, 10 mM β-mercaptoethanol, pH 7.2; read-out: Ki CII (Calpain II)
# Method: Our discovery of Peptide Keto-Compounds effective as Calpain Inhibitors was made through assay of the Peptide Keto-Compounds as reversible inhibitors. Various concentrations of inhibitors in dimethylsulfoxide (DMSO) were added to the assay mixture, which contained buffer and substrate. The reaction was started by the addition of the enzyme and the hydrolysis rates were followed spectrophotometrically or fluorimetrically. 88 mM KH2 PO4, 12 mM Na2 HPO4, 1.33 mM EDTA, 2.7 mM cysteine, pH 6.0 was used as a buffer for cathepsin B; and 20 mM Hepes, 10 mM CaCl2, 10 mM β-mercaptoethanol, pH 7.2 buffer was utilized for calpain I and calpain II.
# All peptide thioester hydrolysis rates were measured with assay mixtures containing 4,4'-dithiodipyridine [e324=19800 M-1 cm-1; Grasetti & Murray, Arch. Biochem. Biophys. 119, pp 41-49 (1967)]. Papain was assayed with Bz-Arg-AMC or Bz-Arg-NA [Kanaoka et al., Chem. Pharm. Bull. 25, 3126-3128 (1977)], and the AMC (7-amino-4-methylcoumarin) release was followed fluorimetrically (excitation at 380 nm, and emission at 460 nm). Cathepsin B was assayed with Z-Arg-Arg-AFC [Barrett and Kirschke, Methods Enzymol. 80, 535-561 (1981)], and the AFC (7-amino-4-trifluoromethylcoumarin) release was followed fluorimetrically (excitation at 400 nm, and emission at 505 nm). Calpain I from human erythrocytes and calpain II from rabbit were assayed using Suc-Leu-Tyr-AMC [Sasaki et al., J. Biol. Chem. 259, 12489-12494 (1984), hereby incorporated by reference], and the AMC (7-amino-4-methylcoumarin) release was followed fluorimetrically (excitation at 380 nm, and emission at 460 nm). Enzymatic hydrolysis rates were measured at various substrate and inhibitor concentrations, and Ki values were determined by Dixon plot.
# Calpain II = Calpain II KI (Table 1B(ii)); type: biochemical
# From the text: (§1) We tested the ability of an additional group of Peptide Keto-Compounds to inhibit several proteases in order to evaluate their specificity for Calpain.
# Cathepsin B = Cathepsin B (Bos taurus, UniProt P07688); assay: Cathepsin B KI (Table 1B(ii)); type: biochemical; details: read-out: KI CathB
# From the text: as §1
# Papain = target: T1, Papain (Carica papaya, UniProt P00784); assay: Papain KI (Table 1B(ii)); type: biochemical
# T1 sequence (P00784 134-345): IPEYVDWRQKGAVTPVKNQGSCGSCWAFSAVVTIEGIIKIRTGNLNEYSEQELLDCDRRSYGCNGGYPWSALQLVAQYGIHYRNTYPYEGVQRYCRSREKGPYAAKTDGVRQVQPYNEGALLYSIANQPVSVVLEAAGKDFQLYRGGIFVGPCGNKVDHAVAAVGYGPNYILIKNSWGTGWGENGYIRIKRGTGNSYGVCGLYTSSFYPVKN
# From the text: as §1
# hippocampal slices = assay: Hippocampal slice survival after 10 min anoxia (Example 7A); type: cell-based, rat
# Method: Hippocampal slices (400 um) were prepared from Sprague Dawley rats (6 to 7 weeks) and maintained in an interface chamber at 35° C. using conventional techniques, i.e., the lower surface of the slice received a constant perfusion (0.5 ml/min) of ACSF, while the upper surface was exposed to a moist atmosphere of O2 :CO2 (95%:5%) exchanged at a rate of 2 L/min. The ACSF medium contains (in mM): NaCl (124), KCl (3), KHPO4 (2.5), CaCl (3.4), NaHCO3 (26) and D-Glucose (10). Field excitatory post-synaptic responses were recorded from stratum radiatum of CAlb in response to stimulation of Schaffer-commissural fibers in CAla or CAlc. The depth of the recording electrode was optimized and evoked responses were collected at a rate of one evoked response every 30 seconds.
# For the initial screening procedure, 14 to 16 slices are harvested from the hippocampus of a single rat and placed in a common ACSF bath. Each slice is tested in sequence to determine the magnitude of its pre-anoxic evoked response. Five stimulation pulses (each 0.1 ms (millisecond) in duration) were presented over a 15 second interval. The largest evoked response was noted and recorded for each slice.
# After the one hour drug incubation period, the oxygen-enriched atmosphere of the chamber was made anoxic by substituting nitrogen for oxygen (N2 =95%; CO^2 =5%). The slices were retained in this anoxic environment for 10 minutes, following which the oxygen-enriched atmosphere (O^2 =95%; CO2 =5%) was reestablished.
# The slices were given the opportunity to recover for 30 minutes following reoxygenation whereupon each was stimulated and the maximum evoked potential determined, as described above during the pre-anoxia period. Those slices which, after anoxia, produced a maximum evoked potential of greater than 50% of that observed prior to anoxia were defined as surviving slices.
smiles,measurement,setting,value
"CCOC(=O)C(=O)C(CC)NC(=O)[C@H](C)NC(=O)[C@H](C)NC(=O)OCc1ccccc1 (mixture of isomers) [Z-Ala-Ala-DL-Abu-COOEt, Z-Ala-Ala-DL-Abu-CO2 Et]",Ki,calpain II from rabbit,200 µM
"CCCCC(NC(=O)C(CC(C)C)NC(=O)OCc1ccccc1)C(=O)C(=O)OCC (stereo not drawn) [Z-Leu-Nle-COOEt, Z-Leu-NLeu-CO2 Et]",Ki,calpain II from rabbit,0.18 µM
same,Ki,Calpain II,0.18 µM
same,Ki,Cathepsin B,20 µM
same,Ki,Papain,190 µM
"CC(=O)N[C@@H](CC(C)C)C(=O)N[C@@H](CC(C)C)C(=O)N[C@H](C=O)CCCNC(=N)N [Leupeptin, Ac-Leu-Leu-Arg-H, reference compound]",Survival of slices after ten minutes anoxia,"hippocampal slices; Dose 1000 μM, incubation 3 hours",50%
CCOC(=O)C(=O)C(Cc1ccccc1)NC(=O)C(CC(C)C)NC(=O)OCc1ccccc1 (stereo not drawn) [Z-Leu-Phe-COOEt],Ki,calpain II from rabbit,0.4 µM
same,Ki,Calpain II,0.4 µM
same,Ki,Cathepsin B,340 µM
same,Ki,Papain,75 µM
CC(C)CC(NC(=O)CNC(=O)OC(C)(C)C)C(=O)NC(Cc1ccccc1)C(=O)CCl (stereo not drawn) [Boc-Gly-Leu-Phe-CH2 Cl] (Boc-Gly-Leu-Phe-CH2Cl; configuration not given here),Survival of slices after ten minutes anoxia,"hippocampal slices; Dose 50 μM, incubation 1 hour",50%
"CCCC(NC(=O)[C@H](CC(C)C)NC(=O)OCc1ccccc1)C(=O)C(=O)OCC (mixture of isomers) [Z-Leu-Nva-COOEt, Z-Leu-DL-Nva-COOEt]",Ki,calpain II from rabbit,1.2 µM
same,Ki,Calpain II,1.2 µM
same,Ki,Cathepsin B,25 µM
same,Ki,Papain,150 µM
"CCOC(=O)C(=O)[C@H](CC)NC(=O)[C@H](CC(C)C)NC(=O)OCc1ccccc1 (racemic) [Z-Leu-Abu-COOEt, Z-Leu-DL-Abu-COOEt]",Ki,calpain II from rabbit,0.4 µM
same,Ki,Calpain II,0.4 µM
same,Ki,Cathepsin B,30 µM
same,Ki,Papain,220 µM
same,protection of slices from anoxia (FIG. 3),"hippocampal slices; 10 minutes anoxic atmosphere, listed as CX218",protected from the effects of anoxia; also recorded: significantly more effective
same,Survival of slices after ten minutes anoxia,"hippocampal slices; Dose 100 μM, incubation 1 hour",70%
"N=C(N)SCCCOc1oc(=O)c2cc(N)ccc2c1Cl [NH2 -CiTPrOIC (ACITIC), 7-amino-4-chloro-3-(3-isothiureidopropoxy)isocoumarin]",Survival of slices after ten minutes anoxia,"hippocampal slices; Dose 20 μM, incubation 1 hour",50%
